Results on 22 compounds are retold here after ChEMBL document CHEMBL1153451, “Novel aminopeptidase N inhibitors derived from antineoplaston AS2-5 (Part I)” (Bioorg Med Chem, 2009).

The source made the active and inactive calls. The calls are words filed in the database; no cut-off is given here.

In general, IC50 refers to the concentration that inhibits the measured activity by half.

For one assay, the target named is T1, Aminopeptidase N (Sus scrofa, UniProt P15145).
T1 sequence (P15145 whole entry): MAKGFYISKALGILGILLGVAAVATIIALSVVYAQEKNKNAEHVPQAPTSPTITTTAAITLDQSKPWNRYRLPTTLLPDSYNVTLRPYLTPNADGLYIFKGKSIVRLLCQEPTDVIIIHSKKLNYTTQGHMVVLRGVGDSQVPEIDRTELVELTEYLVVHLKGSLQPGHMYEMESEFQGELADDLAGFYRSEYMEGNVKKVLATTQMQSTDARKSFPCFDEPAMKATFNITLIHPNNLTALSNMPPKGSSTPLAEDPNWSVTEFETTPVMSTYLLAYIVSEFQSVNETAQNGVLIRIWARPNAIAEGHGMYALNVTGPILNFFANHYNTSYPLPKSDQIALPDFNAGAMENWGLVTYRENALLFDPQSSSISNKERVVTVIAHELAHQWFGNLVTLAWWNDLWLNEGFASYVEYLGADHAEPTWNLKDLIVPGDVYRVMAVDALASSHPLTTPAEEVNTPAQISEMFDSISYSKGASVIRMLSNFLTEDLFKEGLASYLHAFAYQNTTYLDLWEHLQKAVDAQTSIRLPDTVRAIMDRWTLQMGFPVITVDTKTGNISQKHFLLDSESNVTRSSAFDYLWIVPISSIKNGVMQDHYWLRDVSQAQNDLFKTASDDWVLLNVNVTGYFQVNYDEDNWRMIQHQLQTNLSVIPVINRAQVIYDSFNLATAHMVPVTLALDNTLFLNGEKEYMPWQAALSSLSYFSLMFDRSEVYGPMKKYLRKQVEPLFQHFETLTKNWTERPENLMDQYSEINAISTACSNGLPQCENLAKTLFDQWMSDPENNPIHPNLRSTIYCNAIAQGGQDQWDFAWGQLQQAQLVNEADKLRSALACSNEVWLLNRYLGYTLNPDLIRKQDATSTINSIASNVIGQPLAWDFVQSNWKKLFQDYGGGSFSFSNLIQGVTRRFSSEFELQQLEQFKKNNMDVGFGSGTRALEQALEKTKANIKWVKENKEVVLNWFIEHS
In words: (§1) Inhibition of pig kidney microsome aminopeptidase N by UV-visible spectrophotometer.

The target in assay [1] is 72 kDa type IV collagenase (Homo sapiens, UniProt P08253). The assay is described as follows: Inhibition of MMP2 by spectrophotometry.
For assay [2], the target named is T2, Aminopeptidase N (Sus scrofa) (UniProt P15145).
T2 sequence (whole entry): T1 sequence (P15145 whole entry)
Described as §1.

For `COc1cc(C(=O)N[C@H](CCC(=O)O)C(=O)Nc2ccc(C(=O)O)c(O)c2)cc(OC)c1OC`, the figures for the IC50 (on Aminopeptidase N; in assay [1]) were 57.8 µM and 86.3 µM, respectively. The corresponding values for `COc1cc(C(=O)N[C@H](CCC(=O)O)C(=O)Nc2ccc(S(N)(=O)=O)cc2)cc(OC)c1OC` are 103 µM and 628 µM. For `COc1cc(C(=O)N[C@H](CCC(=O)O)C(=O)NCc2cccc(I)c2)cc(OC)c1OC` the same measures were 65.9 µM and 76.8 µM.

As to `COc1cc(C(=O)N[C@H](CCC(=O)O)C(=O)NNC(=O)c2nccs2)cc(OC)c1OC`, the figures for the IC50 (against Aminopeptidase N; in assay [1]) were 87.7 µM and 169 µM, respectively. For `COc1cc(C(=O)N[C@H](CCC(=O)O)C(=O)Nc2ccc(N)cc2)cc(OC)c1OC` the same measures were 23.4 µM and 33.6 µM. The corresponding values for `COc1cc(C(=O)N[C@H](CCC(=O)O)C(=O)Nc2ccc(C(=O)O)cc2)cc(OC)c1OC` are 65.8 µM and 71.2 µM. As for `COc1cc(C(=O)N[C@H](CCC(=O)O)C(=O)Nc2ccc(F)cc2)cc(OC)c1OC`, the half-inhibitory concentration (IC50) worked out at 24.3 µM against Aminopeptidase N and 26.1 µM in assay [1].

In the case of `COc1cc(C(=O)N[C@H](CCC(=O)O)C(=O)NCc2ccc(Cl)cc2F)cc(OC)c1OC`, the IC50 was found to be 45.6 µM at Aminopeptidase N and 52.8 µM in assay [1]. Consider `COc1cc(C(=O)N[C@H](CCC(=O)O)C(=O)NCc2ccc(Br)cc2F)cc(OC)c1OC`, for which the results for the IC50 (on Aminopeptidase N; in assay [1]) were 51.2 µM and 76.1 µM, respectively. The corresponding values for `COc1cc(C(=O)N[C@H](CCC(=O)O)C(=O)NNC(=O)c2cccnc2)cc(OC)c1OC` are 72.4 µM and 115 µM. For `COc1cc(C(=O)N[C@H](CCC(=O)O)C(=O)Nc2cc(Cl)ccc2Cl)cc(OC)c1OC`, the figures for the IC50 (at Aminopeptidase N; in assay [1]) were 80.4 µM and 122 µM, respectively.

Regarding `COc1cc(C(=O)N[C@H](CCC(=O)O)C(=O)Nc2ccc(F)cc2F)cc(OC)c1OC`, the IC50 on Aminopeptidase N was 89.6 µM; in assay [1] it was 109 µM.

Take `CC(C)C[C@H](NC(=O)[C@@H](O)[C@H](N)Cc1ccccc1)C(=O)O` [UBENIMEX]: in assay [1], inhibition was half-maximal at 40.5 µM (IC50). With `COc1cc(C(=O)N[C@H](CCC(=O)O)C(=O)Nc2nccs2)cc(OC)c1OC`, the IC50 on Aminopeptidase N was 108 µM; in assay [1], 369 µM. For `COc1cc(C(=O)N[C@H](CCC(=O)O)C(=O)Nc2ccc(F)c(Cl)c2)cc(OC)c1OC` the same measures were 78.5 µM and 107 µM.

For the compound `COc1cc(C(=O)N[C@H](CCC(=O)O)C(=O)NCCCl)cc(OC)c1OC`, the IC50 against Aminopeptidase N turned out to be 805 µM; in assay [1], 501 µM. As for `COc1cc(C(=O)N[C@H](CCC(=O)O)C(=O)Nc2ccc(Br)cc2)cc(OC)c1OC`, the figures for the IC50 (against Aminopeptidase N; in assay [1]) were 41.9 µM and 54.4 µM, respectively. For the compound `COc1cc(C(=O)N[C@H](CCC(=O)O)C(=O)Nc2ccc([N+](=O)[O-])cc2)cc(OC)c1OC`, the outcome in assay [2] and in assay [1] was inactive. As to `COc1cc(C(=O)NC2CCC(=O)N(c3ccccc3N)C2=O)cc(OC)c1OC` (stereo not drawn), the figures for the half-inhibitory concentration (IC50) (at Aminopeptidase N; in assay [1]) were 104 µM and 660 µM, respectively. For `COc1cc(C(=O)N[C@H](CCC(=O)O)C(=O)Nc2ccc(Cl)cc2)cc(OC)c1OC` the same measures were 40 µM and 52.3 µM. In the case of `COc1cc(C(=O)N[C@H](CCC(=O)O)C(=O)Nc2ccc(S(=O)(=O)Nc3nccs3)cc2)cc(OC)c1OC`, the half-maximal inhibitory concentration (IC50) was 40.1 µM against Aminopeptidase N and 55.3 µM in assay [1]. The corresponding values for `COc1cc(C(=O)N[C@H](CCC(=O)O)C(=O)NCc2cccc(Br)c2)cc(OC)c1OC` are 177 µM and 287 µM.
